Reference: patent US12116636B2, “Methods for evaluating tumor cell spheroids using 3D microfluidic cell culture device” (Dana-Farber Cancer Institute, Inc., priority 2017, dated 2024)

Tested on: PDOTS
Experiment: Bead-based cytokine profiling of PDOTS conditioned media
Assay type: cell-based, human
Procedure: Fresh tumor specimens (murine and human patients) were received in media (DMEM) on ice and minced in a 10 cm dish (on ice) using sterile forceps and scalpel. Minced tumor was resuspended in DMEM (4.5 mM glucose, […] sodium pyruvate, 1:100 penicillin-streptomycin) (Coming CellGro, Manassas, VA)+10% FBS (Gemini Bio-Products, West Sacramento, CA), 100 U/mL collagenase type IV (Life Technologies, Carlsbad, CA), and 15 mM HEPES (Life Technologies, Carlsbad, CA), except for CT26 tumors that were prepared in RPMI. Samples were pelleted and resuspended in 10-20 mL media. Red blood cells were removed from visibly bloody samples using RBC Lysis Buffer (Boston Bio-Products, Ashland, MA). […]
Two multiplex assays were performed utilizing a bead-based immunoassay approach, the Bio-Plex Pro™ Human Cytokine 40-plex Assay (Cat #171AK99MR2) and Bio-Plex Pro™ Mouse Cytokine Panel 1, 23-plex (Cat #M60009RDPD) on a Bio-plex 200 system (Cat #171000201). […] Fold changes relative to the MDOT/PDOT control were calculated and plotted as log 2FC. Lower and upper limits of quantitation (LLOQ/ULOQ) were imputed from standard curves for cytokines above or below detection. […]

Substance | PDOTS samples with upregulation of CCL19 and CXCL13 (Day 3 cytokine release, n=28) | CCL19/CXCL13 induction in PDOTS (Day 3, relative to untreated control)
pembrolizumab [PD-1 blockade] | 23/28 | 
ipilimumab [CTLA-4 blockade] |  | comparatively minimal
